According to patent US9546401B2, “Assays and methods for selecting a treatment regimen for a subject with depression” (The General Hospital Corporation, priority 2011, dated 2017):
Read-outs that look alike come from different tables or passages of the source.

Tested on: MDD patients carrying the indicated biomarkers
Conditions: for HAMD-17 change, Effect / HAMD-28 change, Effect: + SSRI
Description: Folate levels are classified as either low (<=2.5 ng/ml) or normal; and homocysteine levels as either normal or elevated (>=[…]). The presence or absence of at least one […] allele for the MTHFR gene are entered as a dichotomous variable (present or absent). […] Using folate as an example predicator, the presence or absence of a low serum-folate level along with treatment assignment can be entered in a 2×2, factorial ANOVA, using depression improvement scores (baseline minus endpoint HAM-D-17 scores) as the dependant variable. […] Similar analyses (i.e. separate 2×2 ANOVA's) can be performed substituting the presence of low folate levels for the presence of other predictors as described herein. Similarly, the effect of other predictors can be indicated by the interaction term representing the potential modulating influence of those variables.
The efficacy effect is determined by measuring the mean change in the HAMD-17 score and HAMD-28 score by the end of Phase I and Phase II, as compared to the baseline.

[1] = A + B: BMI > 30 & LOW SAM/SAH RATIO, N = 13
[2] = A + C: BMI > 30 & HIGH 4-HNE, N = 12
[3] = A + D: BMI > 30 & MTHFR 677 CT/TT, N = 9
[4] = A + E + F: BMI > 30 & MTR 2756 AG/GG & MTRR 66 AG/GG, N = 4
[5] = A + E: BMI > 30 & MTR 2756 AG/GG, N = 5
[6] = B + C: LOW SAM/SAH RATIO & HIGH 4-HNE, N = 11
[7] = B + E + F: LOW SAM/SAH RATIO & MTR 2756 AG/GG & MTRR 66 AG/GG, N = 5
[8] = B + E: LOW SAM/SAH RATIO & MTR 2756 AG/GG, N = 6
[9] = B + F: LOW SAM/SAH RATIO & MTRR 66 AG/GG, N = 11
[10] = C + D: HIGH 4-HNE & MTHFR 677 CT/TT, N = 8
[11] = C + E + F: HIGH 4-HNE & MTR 2756 AG/GG & MTRR 66 AG/GG, N = 4
[12] = C + E: HIGH 4-HNE & MTR 2756 AG/GG, N = 9
[13] = C + F: HIGH 4-HNE & MTRR 66 AG/GG, N = 15
[14] = D + E: MTHFR 677 CT/TT & MTR 2756 AG/GG, N = 4
[15] = E + F: MTR 2756 AG/GG & MTRR 66 AG/GG, N = 8
[16] = MTHFR 677 CC and MTR 2756 AA, Phase I
[17] = MTHFR 677 CC and MTR 2756 AA, Phase II
[18] = MTHFR 677 CC and MTR 2756 AA, Pooled phases
[19] = MTHFR 677 CT or TT and MTR 2756 AG or GG, Phase I
[20] = MTHFR 677 CT or TT and MTR 2756 AG or GG, Phase II
[21] = MTHFR 677 CT or TT and MTR 2756 AG or GG, Pooled phases
[22] = MTR 2756 AA and MTRR 66 AA and BMI < 30 kg/m^2, Phase II
[23] = MTR 2756 AG or GG and MTRR 66 AG or GG and BMI >= 30 kg/m^2, Phase I
[24] = MTR 2756 AG or GG and MTRR 66 AG or GG and BMI >= 30 kg/m^2, Phase II
[25] = MTR 2756 AG or GG and MTRR 66 AG or GG and BMI >= 30 kg/m^2, Pooled phases

CN1c2c(nc(N)[nH]c2=O)NC[C@@H]1CNc1ccc(C(=O)N[C@@H](CCC(=O)O)C(=O)O)cc1 [6(S)-5-MTHF, 6(S)-5-methyltetrahydrofolate]
Pooled Effect Size HAMD-17 [1]: −7.302
Pooled Effect Size HAMD-28 [1]: −7.572
Pooled Effect Size HAMD-17 [2]: −5.420
Pooled Effect Size HAMD-28 [2]: −5.996
Pooled Effect Size HAMD-17 [3]: −8.090
Pooled Effect Size HAMD-28 [3]: −9.884
Pooled Effect Size HAMD-17 [4]: −10.972
Pooled Effect Size HAMD-28 [4]: −15.347
Pooled Effect Size HAMD-17 [5]: −11.714
Pooled Effect Size HAMD-28 [5]: −14.433
Pooled Effect Size HAMD-17 (A: BMI > 30, N = 21): −4.600
Pooled Effect Size HAMD-28 (A: BMI > 30, N = 21): −4.660
Pooled Effect Size HAMD-17 [6]: −9.898
Pooled Effect Size HAMD-28 [6]: 9.500
Pooled Effect Size HAMD-17 [7]: −7.640
Pooled Effect Size HAMD-28 [7]: −11.620
Pooled Effect Size HAMD-17 [8]: −5.583
Pooled Effect Size HAMD-28 [8]: −11.683
Pooled Effect Size HAMD-17 [9]: −5.879
Pooled Effect Size HAMD-28 [9]: −6.879
Pooled Effect Size HAMD-17 (B: LOW SAM/SAH RATIO, N = 18): −3.622
Pooled Effect Size HAMD-28 (B: LOW SAM/SAH RATIO, N = 18): −4.572
Pooled Effect Size HAMD-17 [10]: −9.446
Pooled Effect Size HAMD-28 [10]: −9.865
Pooled Effect Size HAMD-17 [11]: −7.942
Pooled Effect Size HAMD-28 [11]: −10.241
Pooled Effect Size HAMD-17 [12]: −8.072
Pooled Effect Size HAMD-28 [12]: −9.508
Pooled Effect Size HAMD-17 [13]: −4.850
Pooled Effect Size HAMD-28 [13]: −6.582
Pooled Effect Size HAMD-17 (C: HIGH 4-HNE, N = 21): −4.175
Pooled Effect Size HAMD-28 (C: HIGH 4-HNE, N = 21): 4.554
Pooled Effect Size HAMD-17 [14]: −18.710
Pooled Effect Size HAMD-28 [14]: −23.290
Pooled Effect Size HAMD-17 [15]: −6.976
Pooled Effect Size HAMD-28 [15]: −9.348
Pooled Effect Size HAMD-17 (E: MTR 2756 AG/GG, N = 11): −5.677
Pooled Effect Size HAMD-28 (E: MTR 2756 AG/GG, N = 11): −8.243
effect in carriers of both variants relative to the sum of the individual biomarker effects (HAMD-28 mean change, MTHFR T + MTR G): at least 2 fold
HAMD-17 change, Effect [16]: −0.700
HAMD-28 change, Effect [16]: −0.192
HAMD-17 change, Effect [17]: −0.571
HAMD-28 change, Effect [17]: 0.048
HAMD-17 change, Effect [18]: 0.722
HAMD-28 change, Effect [18]: 0.711
HAMD-17 change, Effect [19]: −13.47
HAMD-28 change, Effect [19]: −18.00
HAMD-17 change, Effect [20]: −10.33
HAMD-28 change, Effect [20]: −13.00
HAMD-17 change, Effect [21]: −18.71
HAMD-28 change, Effect [21]: −23.29
HAMD-17 change, Effect [22]: −4.333
HAMD-28 change, Effect [22]: −4.667
HAMD-17 change, Effect [23]: −13.667
HAMD-28 change, Effect [23]: −18.833
HAMD-17 change, Effect [24]: −11.000
HAMD-28 change, Effect [24]: −12.000
HAMD-17 change, Effect [25]: −10.972
HAMD-28 change, Effect [25]: −15.347
Pooled Effect Size HAMD-17 (OVERALL, N = 73): −2.264
Pooled Effect Size HAMD-28 (OVERALL, N = 73): −2.738
Effect on change in HAMD-17 score (Phase I, 25 =< BMI < 30 kg/m^2): 2.600
Effect on change in HAMD-28 score (Phase I, 25 =< BMI < 30 kg/m^2): 2.602
Effect on change in HAMD-17 score (Phase I, BMI < 25): 1.576
Effect on change in HAMD-28 score (Phase I, BMI < 25): 0.909
Effect on change in HAMD-17 score (Phase I, BMI < 30 kg/m^2 and HNE-His < median): 3.771
